Literature values as cited in US20070026383A1, “Methods and compositions for extracting membrane proteins” (Quintessence Biosciences, Inc., priority 2005, published 2007).

Key:
[1] = not given; remark: listed apart in the source

## CCc1c2c(nc3ccc(OC(=O)N4CCC(NCCCCC(=O)O)CC4)cc13)-c1cc3c(c(=O)n1C2)COC(=O)C3(O)CC (centres unmarked) [APC, 7-ethyl-10[4-N-(5-aminopentanoic acid)-1piperidino]carbonyloxycamptothecin]
other
  antitumor activity in vitro: weak antitumor activity
[1]; relative to SN-38
  fold weaker antitumor activity compared with SN-38: 500 fold

## CCc1c2c(nc3ccc(OC(=O)N4CCC(N)CC4)cc13)-c1cc3c(c(=O)n1C2)COC(=O)[C@]3(O)CC [NPC, 7-ethyl-10-(4-amino-1-piperidino)carbonyloxycamptothecin]
other
  antitumor activity in vitro: weak antitumor activity

## CCc1c2c(nc3ccc(O)cc13)-c1cc3c(c(=O)n1C2)COC(=O)[C@]3(O)CC [SN-38, 7-ethyl-10-hydroxycamptothecin]
[1]; relative to Irinotecan
  fold higher antitumor activity than Irinotecan: 100-1,000 fold

## CCc1c2c(nc3ccc(O[C@@H]4O[C@H](C(=O)O)[C@@H](O)[C@H](O)[C@H]4O)cc13)-c1cc3c(c(=O)n1C2)COC(=O)[C@]3(O)CC [SN-38G, 10-O-glucuronyl-SN-38]
[1]; glucuronide of SN-38
  activity of metabolite: inactive
